Results published in ChEMBL document CHEMBL4354809, “p97: An Emerging Target for Cancer, Neurodegenerative Diseases, and Viral Infections” (J Med Chem, 2020).

Tests used:
[1] = test system: HCT-116; experiment: Antiproliferative activity against human HCT116 cells; assay type: functional, cell-based
[2] = molecular target: T1, Transitional endoplasmic reticulum ATPase (Homo sapiens, UniProt P55072); experiment: Binding affinity to GST-tagged p97 (unknown origin) by CD spectroscopy
[3] = molecular target: T1, Transitional endoplasmic reticulum ATPase; experiment: Inhibition of p97 in human HeLa cells assessed as reduction in p97-dependent UbG76V-GFP degradation incubated for 1 hr by […] reporter gene assay; assay type: cell-based
[4] = molecular target: T1, Transitional endoplasmic reticulum ATPase; experiment: Inhibition of p97 (unknown origin) expressed in Escherichia coli BL21 (DE3) pre-incubated for 10 mins before ATP addition and measured up to 120 mins measured by malachite green assay
[5] = molecular target: T1, Transitional endoplasmic reticulum ATPase; experiment: Inhibition of p97 in HEK293 cells co-expressing GFP and hemagglutinin assessed as reduction in p97-dependent ERAD pathway by immunoblotting analysis; assay type: cell-based
[6] = molecular target: T1, Transitional endoplasmic reticulum ATPase; experiment: Inhibition of p97 (unknown origin) assessed as reduction in ATPase activity
[7] = molecular target: T1, Transitional endoplasmic reticulum ATPase; experiment: Inhibition of p97 (unknown origin) by ADP-Glo assay
[8] = molecular target: T1, Transitional endoplasmic reticulum ATPase; experiment: Inhibition of human p97
[9] = test system: Panel NCI-60 (60 carcinoma cell lines); experiment: Growth inhibition of human NCI60 cells; assay type: functional, cell-based
[10] = test system: Human betaherpesvirus 5; experiment: Antiviral activity against Human Cytomegalovirus; assay type: functional, organism-based
[11] = molecular target: ATP-dependent clpX-like chaperone, mitochondrial (Homo sapiens, UniProt O76031); experiment: Inhibition of ClpX (unknown origin) expressed in Escherichia coli BL21 (DE3) pre-incubated for 10 mins before ATP addition and measured up to 120 mins measured by malachite green assay
[12] = molecular target: T2, Vacuolar protein sorting-associated protein 4B (Homo sapiens, UniProt O75351); experiment: Inhibition of VPS4B (unknown origin) by malachite green assay
T2 sequence (O75351 whole entry): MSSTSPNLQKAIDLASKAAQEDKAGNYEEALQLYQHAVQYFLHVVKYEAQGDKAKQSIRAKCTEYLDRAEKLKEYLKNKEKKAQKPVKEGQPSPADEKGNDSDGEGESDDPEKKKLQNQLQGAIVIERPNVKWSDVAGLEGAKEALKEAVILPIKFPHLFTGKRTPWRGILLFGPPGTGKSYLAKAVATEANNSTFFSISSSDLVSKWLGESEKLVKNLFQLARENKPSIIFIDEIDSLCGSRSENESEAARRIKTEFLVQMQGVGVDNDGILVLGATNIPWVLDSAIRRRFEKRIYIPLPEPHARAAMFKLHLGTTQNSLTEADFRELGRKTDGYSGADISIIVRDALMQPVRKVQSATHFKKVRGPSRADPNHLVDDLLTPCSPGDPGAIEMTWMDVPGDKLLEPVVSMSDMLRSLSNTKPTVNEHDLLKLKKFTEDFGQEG

[13] = species on record: Homo sapiens; experiment: Selectivity ratio of IC50 for inhibition of p97 (unknown origin) by malachite green assay to IC50 for inhibition of VPS4B (unknown origin) by malachite green assay
[14] = molecular target: T1, Transitional endoplasmic reticulum ATPase; experiment: Inhibition of p97 (unknown origin) by malachite green assay
[15] = molecular target: T2, Vacuolar protein sorting-associated protein 4B; experiment: Inhibition of VPS4B (unknown origin) assessed as reduction in ATPase activity in presence of activating fragment of substrate CHMP1B
[16] = molecular target: T1, Transitional endoplasmic reticulum ATPase; experiment: Inhibition of GST-fused VCP (unknown origin) expressed in Escherichia coli BL21 star (DE3) pre-incubated for 60 mins before ATP addition and measured after 60 mins by kinase Glo-Plus reagent based assay
[17] = molecular target: T1, Transitional endoplasmic reticulum ATPase; experiment: Binding affinity to p97 (unknown origin) by SPR assay
[18] = test system: JeKo-1; experiment: Growth inhibition of human JeKo1 cells assessed as reduction in cell viability by MTT assay; assay type: functional, cell-based

T1 sequence (P55072 whole entry): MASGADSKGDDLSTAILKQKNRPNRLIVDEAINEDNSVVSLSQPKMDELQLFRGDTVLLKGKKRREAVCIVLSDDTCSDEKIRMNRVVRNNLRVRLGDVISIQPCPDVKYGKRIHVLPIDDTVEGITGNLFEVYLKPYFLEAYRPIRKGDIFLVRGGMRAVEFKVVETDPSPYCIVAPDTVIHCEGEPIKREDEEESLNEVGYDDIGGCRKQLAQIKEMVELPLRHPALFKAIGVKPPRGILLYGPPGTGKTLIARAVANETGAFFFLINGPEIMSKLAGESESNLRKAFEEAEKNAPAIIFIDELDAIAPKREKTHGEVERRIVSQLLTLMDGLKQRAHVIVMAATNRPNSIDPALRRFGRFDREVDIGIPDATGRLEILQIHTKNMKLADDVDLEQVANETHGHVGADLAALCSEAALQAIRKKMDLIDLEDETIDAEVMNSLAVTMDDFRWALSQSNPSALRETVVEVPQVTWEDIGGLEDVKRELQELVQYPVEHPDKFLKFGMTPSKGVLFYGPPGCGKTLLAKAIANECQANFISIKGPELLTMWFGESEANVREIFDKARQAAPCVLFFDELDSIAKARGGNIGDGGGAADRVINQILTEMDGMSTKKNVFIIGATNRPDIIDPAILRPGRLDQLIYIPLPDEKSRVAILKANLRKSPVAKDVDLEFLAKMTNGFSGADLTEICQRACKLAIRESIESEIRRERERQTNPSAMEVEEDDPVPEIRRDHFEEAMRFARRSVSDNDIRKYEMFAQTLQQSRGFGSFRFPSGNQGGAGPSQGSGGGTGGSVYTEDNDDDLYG
ATP-dependent clpX-like chaperone, mitochondrial, sequence (O76031 whole entry): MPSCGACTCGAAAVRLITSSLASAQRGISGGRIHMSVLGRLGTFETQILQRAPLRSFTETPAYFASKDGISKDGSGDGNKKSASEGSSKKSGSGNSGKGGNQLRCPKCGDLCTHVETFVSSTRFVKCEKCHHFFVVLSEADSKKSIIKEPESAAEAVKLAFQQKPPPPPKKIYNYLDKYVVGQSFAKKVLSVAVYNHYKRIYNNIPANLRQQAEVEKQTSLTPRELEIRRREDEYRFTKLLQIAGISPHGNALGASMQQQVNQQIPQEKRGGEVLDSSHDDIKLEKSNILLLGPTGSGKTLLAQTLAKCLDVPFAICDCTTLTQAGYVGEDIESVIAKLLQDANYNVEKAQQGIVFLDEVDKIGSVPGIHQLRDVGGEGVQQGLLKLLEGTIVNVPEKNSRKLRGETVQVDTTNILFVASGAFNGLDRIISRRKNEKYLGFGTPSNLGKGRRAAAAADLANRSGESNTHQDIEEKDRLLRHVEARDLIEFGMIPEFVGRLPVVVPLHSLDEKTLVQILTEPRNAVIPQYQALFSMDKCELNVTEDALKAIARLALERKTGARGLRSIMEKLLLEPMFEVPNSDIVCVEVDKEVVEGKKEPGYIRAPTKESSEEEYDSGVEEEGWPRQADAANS

**Q.** Which IC50 [1] does the source give for `O=C(CCl)Nc1cccc(NC2=NS(=O)(=O)c3ccccc32)c1` here?
**A.** 3 µM

**Q.** For `O=C(/C=C1\Nc2ccccc2C(=O)N2CCC[C@@H]12)/C=C/c1c[nH]c2ccc(I)cc12`, which Kd [2] is on record?
**A.** 7 µM

**Q.** Which IC50 [3] does the source give for `Clc1ccccc1C(c1ccccc1)(c1ccccc1)n1ccnc1` [CLOTRIMAZOLE] here?
**A.** 1.4 µM

**Q.** Which IC50 [4] does the source give for `C[C@H]1CCC/C=C/C(=O)c2c(O)c(Cl)c(O)c(Cl)c2CC(=O)O1` here?
**A.** 15.3 µM

**Q.** And the IC50 [5]?
**A.** 7.9 µM

**Q.** `[N-]=[N+]=Nc1cccc(-n2c(COc3ccc(CCCO)cc3)nnc2SC2CCCC2)c1` was tested. Which IC50 [6] did it give?
**A.** 1.1 µM

**Q.** How did the IC50 [7] turn out when `CC(C)N1CCN(CCNC2CCN(c3cccc(-c4cc5cc(C(=O)N(C)C)ccc5[nH]4)c3)CC2)CC1` was run?
**A.** 31.4 µM

**Q.** `CC(C)N1CCN(CCNC2CCN(c3cccc(-c4cc5cc(C(F)(F)F)ccc5[nH]4)c3)CC2)CC1` was tested. Which IC50 [7] did it give?
**A.** 4.6 µM

**Q.** For `CC(C)N1CCN(CCNC2CCN(c3cccc(-c4cc5cc(F)ccc5[nH]4)c3)CC2)CC1`, which IC50 [8] is on record?
**A.** 0.02 to 0.07 µM

**Q.** What about the IC50 [9] of the same molecule?
**A.** 0.316 to 2 µM

**Q.** `Nc1nc2c(ncn2COC(CO)CO)c(=O)[nH]1` [GANCICLOVIR] was tested. Which IC50 [10] did it give?
**A.** 1.3 µM

**Q.** How did the IC50 [4] turn out when `CC(=O)OCC1=C(C)C[C@H]([C@@H](C)[C@H]2CC[C@H]3[C@@H]4C[C@H]5O[C@]56[C@@H](O)C=CC(=O)[C@]6(C)[C@H]4CC[C@]23C)OC1=O` was run?
**A.** 22 µM

**Q.** And the IC50 [11]?
**A.** 9.5 µM

**Q.** With `Cc1cc(OCc2nnc(SC3CCCC3)n2-c2cccnc2)ccc1-c1ccc(S(C)(=O)=O)cc1` as the molecule, how does the IC50 [10] read?
**A.** 0.13 µM

**Q.** Which IC50 [12] does the source give for `Fc1ccc(C(CCCNCC2CCc3[nH]c4ccc(F)cc4c3C2)c2ccc(F)cc2)cc1` (stereo not drawn) here?
**A.** 0.71 µM

**Q.** And the Ratio IC50 [13]?
**A.** 10

**Q.** And the IC50 [14]?
**A.** 7.2 µM

**Q.** What about the IC50 [15] of the same molecule?
**A.** 0.71 µM

**Q.** Which IC50 [6] does the source give for `[N-]=[N+]=Nc1cccc(OCc2nnc(SC3CCCC3)n2-c2cccnc2)c1` here?
**A.** 0.76 µM

**Q.** Which IC50 [16] does the source give for `COc1ccc(C(=O)c2oc3ccccc3c2NC(C)=O)cc1` here?
**A.** > 100 µM

**Q.** Which Kd [17] does the source give for `CC1(C)C(N(O)C(=O)Nc2ccc(Cl)cc2)N(c2ccc(Cl)cc2)C(=O)N1CC(=O)N/N=C/C=C/c1ccc([N+](=O)[O-])o1` (stereo not drawn) here?
**A.** 5 to 10 µM

**Q.** What about the IC50 [18] of the same molecule?
**A.** 4 µM

**Q.** How did the IC50 [7] turn out when `CC(C)N1CCN(CCNC2CCN(c3cccc(-c4cc5cc(C#N)ccc5[nH]4)c3)CC2)CC1` was run?
**A.** 0.044 µM
